Columns and labels:
Format in all cases: functional
[1] = test system: Chlorophyta; assay: Inhibition of photosynthesis in green alga at 100 ug/mL
[2] = test system: Escherichia coli; assay: Antimicrobial activity against Escherichia coli measured per disk
[3] = test system: Staphylococcus aureus; assay: Antimicrobial activity against Staphylococcus aureus measured per disk

CCCC1CCCCCCCCCCCC#Cc2cc(O)c1c(O)c2 (stereo not drawn) [NOSTOCYCLYNE A]
inhibition at 100 µg/mL [1]: 5%
MIC [2]: 10 µg
MIC [3]: 12.5 µg
